Values quoted from earlier work as cited in patent US20100136119A1, “CONTROLLED-RELEASE PREPARATION CONTAINING CILOSTAZOL AND PROCESS FOR THE PREPARATION THEREOF” (AMOREPACIFIC CORPORATION, priority 2007, published 2010).

- solubility in water: ≤ 1 µg/mL
Compound: O=C1CCc2cc(OCCCCc3nnnn3C3CCCCC3)ccc2N1 [Cilostazol]
